Laboratory results taken from patent US20160374944A1, “COMPOSITIONS AND METHODS FOR TREATING AND PREVENTING CANCER BY TARGETING AND INHIBITING CANCER STEM CELLS” (priority 2011, published 2016).

Test system: Pancreatic CSCs
Assay: gene expression by qRT-PCR
Format: cell-based, human
Experimental: FIG. 19 is a graph showing the regulation by rottlerin of cMyc, Nanog, Oct-4, and Sox-2 in pancreatic CSCs. Pancreatic CSCs were treated with rottlerin (0-1 μM) for 24 h. The expression of Nanog, Sox-2 and cMyc was measured by qRT-PCR and normalized to GAPDH.
(A) Pancreatic CSCs were treated with rottlerin (0-1 μM) for 24 h. The expression of Patched-1, Smo and Gli-2 was measured by qRT-PCR. […] (B) Pancreatic CSCs were transduced with Gli-responsive GFP/firefly luciferase viral particles (pGreen Fire1-Gli with EF1, System Biosciences). After transduction, culture medium was replaced and CSCs were treated with rottlerin (0-2 μM) for 24 h. Gli-responsive reporter activity was measured using a luciferase assay (Promega Corporation).
(A and B) Induction of apoptosis and activation of caspase-3/-7. Pancreatic CSCs were treated with rottlerin (0-2 μM) for 48 h, and apoptosis and caspase-3/-7 activity were measured by […] and colorometric assay, respectively. […] (C) Pancreatic CSCs were treated with rottlerin (0-1 μM) for 48 h, and the expression of Bcl-2, XIAP and Survivin was measured by qRT-PCR and normalized to GAPDH.
(A and B) Pancreatic CSCs were treated with rottlerin (0-1 μM) for 24 h. The expression of Zeb-1 and Slug was measured by the qRT-PCR and normalized to GAPDH. […] (C) In vitro Matrigel invasion assay. CSCs were plated onto the Matrigel-coated membrane in the top chamber of the transwell and treated with rottlerin (0-2 μM) for 48 h. Cells invaded to the lower chamber were fixed with methanol, stained with crystal violet and photo micrographed.
(A) Regulation of caspase-3/7 activity by EGCG. CSCs were treated with EGCG (0-60 μM) for 24 h, and caspase-3/7 activity was measured as per manufacturer's instructions. […] (B) Regulation of apoptosis by EGCG. CSCs were treated with EGCG (0-60 μM) for 48 h, and apoptosis was measured by TUNEL assay. […] (C) Regulation of apoptosis-related proteins. Pancreatic CSCs were treated with EGCG (0-60 μM) for 36 h. Real time PCR (q-RT-PCR) was performed to examine the expression of Bcl-2, survivin, XIAP, and GAPDH.
[…] At the end of incubation period, cells were harvested and the expression of Nanog, Sox-2, c-Myc and Oct-4 was measured by the q-RT-PCR. […] (B) Nanog shRNA enhances the inhibitory effects of EGCG on CSC's spheroid viability. Pancreatic CSCs were transduced with either scrambled shRNA or Nanog shRNA expressing lentiviral vector (pLKO.1), and cell lysates were collected and western blot analysis was performed using anti-Nanog antibody (data not shown). CSC/scrambled and CSC/Nanog shRNA were seeded as described above and treated with EGCG (0-60 μM). After 7 days, spheroids were collected and cell suspensions were prepared and viable cells were counted by trypan blue assay.
FIG. 40A and FIG. 40C are graphs and photographs showing the inhibition of components of sonic hedgehog pathway, Gli transcription and nuclear translocation by EGCG. (A) Inhibition of components of sonic hedgehog pathway and Gli transcription. Pancreatic CSCs were treated with EGCG (0-60 μM) for 36 h. The expression of Smothened (Smo), patched 1 (PTCH1), patched 2 (PTCH2), was measured by q-RT-PCR. […] (B) Inhibition of Gli1 and Gli2 expression and Gli transcription. Pancreatic CSCs were treated with EGCG (0-60 μM) for 36 h. The expression of Gli1 and Gli2 was measured by q-RT-PCR. Gli reporter activity. CSCs were transduced with Gli-responsive GFP/firefly luciferase viral particles (pGreen Fire1-Gli with EF1, System Biosciences). After transduction, culture medium was replaced and CSCs were treated with EGCG (0-60 μM) for 24 h. Gli-responsive reporter activity was measured by luciferase assay (Promega Corporation). […] (C) EGCG inhibits nuclear translocation of Gli1 and Gli2. Pancreatic CSCs were treated with or without EGCG (40 or 60 μM) for 24 h. At the end of incubation period, CSCs were fixed with paraformaldehyde, permeabilized with titron X100, and blocked with 5% normal goat serum. […]

[1] = qRT-PCR, rottlerin 0-1 μM, 24 h
[2] = qRT-PCR, rottlerin 0-1 μM, 48 h

O=C(O[C@@H]1Cc2c(O)cc(O)cc2O[C@@H]1c1cc(O)c(O)c(O)c1)c1cc(O)c(O)c(O)c1 [EGCG, epigallocatechin gallate]
no effect on the expression: expression of Sox-2 (q-RT-PCR, EGCG 0-60 μM, 36 h)
inhibited the expression: expression of Bcl-2 (q-RT-PCR, EGCG 0-60 μM, 36 h) | expression of Gli1 (q-RT-PCR, EGCG 0-60 μM, 36 h) | expression of Gli2 (q-RT-PCR, EGCG 0-60 μM, 36 h) | expression of Nanog (q-RT-PCR, EGCG 0-60 μM, 36 h) | expression of Oct-4 (q-RT-PCR, EGCG 0-60 μM, 36 h) | expression of Patched-1 (q-RT-PCR, EGCG 0-60 μM, 36 h) | expression of Patched-2 (q-RT-PCR, EGCG 0-60 μM, 36 h) | expression of XIAP (q-RT-PCR, EGCG 0-60 μM, 36 h) | expression of c-Myc (q-RT-PCR, EGCG 0-60 μM, 36 h) | expression of smoothened (SMO) (q-RT-PCR, EGCG 0-60 μM, 36 h) | expression of survivin (q-RT-PCR, EGCG 0-60 μM, 36 h) | expression of Slug (q-RT-PCR, EGCG 0-60 μM, 48 h) | expression of Snail (q-RT-PCR, EGCG 0-60 μM, 48 h) | expression of ZEB1 (q-RT-PCR, EGCG 0-60 μM, 48 h)

CC(=O)c1c(O)c(C)c(O)c(Cc2c(O)c3c(c(C(=O)/C=C/c4ccccc4)c2O)OC(C)(C)C=C3)c1O [rottlerin]
inhibited the expression: expression of Gli2 [1] | expression of Nanog [1] | expression of Patched-1 [1] | expression of Slug [1] | expression of Smo [1] | expression of Sox-2 [1] | expression of Zeb-1 [1] | expression of cMyc [1] | expression of Bcl-2 [2] | expression of XIAP [2] | expression of survivin [2]
